Target: T1, KRAS G12C 1-169, his-tagged protein, GDP-loaded (Homo sapiens, UniProt P01116, G12C)
T1 construct: KRAS G12C 1-169, his-tagged protein, GDP-loaded; His tag
Test: Biochemical assay: covalent modification of KRAS G12C measured by mass spectrometry
Format: binding
Settings: after a 10 minute incubation period
Description: Test compounds are prepared as 10 mM stock solutions in DMSO (Fisher cat #BP-231-100). KRAS G12C 1-169, his-tagged protein, GDP-loaded is diluted to 2 μM or 0.5 μM in buffer (20 mM Hepes, 150 mM NaCl, 1 mM MgCl2). Compounds are tested for activity as follows:
Compounds are diluted to 50× final test concentration in DMSO in 96-well storage plates. Compound stock solutions are vortexed before use and observed carefully for any sign of precipitation. […] The plate is then resealed with aluminum seal and stored on dry ice until analyzed as described below.
The above described assays are analyzed by mass spectrometry according to one of the following two procedures: […]
After another 30 minute equilibration time, a blank batch (i.e., buffer) is run to ensure equipment is operating properly. […] The method is then run and masses of each individual well recorded. […]
The masses and peak intensities of KRAS G12C protein species are measured using a Dionex RSLCnano system (Thermo Scientific) connected to a Q Exactive Plus mass spectrometer (Thermo Scientific). […]
The mass spectrometer is operated in profile mode at a resolution of 17500, 5 microscans, using 50 msec max injection time and an AGC target of 1×10^6, and a full mass range from 800-1850 m/z is recorded. […]

T1 sequence (P01116 1-169 isoform P01116-2 G12C): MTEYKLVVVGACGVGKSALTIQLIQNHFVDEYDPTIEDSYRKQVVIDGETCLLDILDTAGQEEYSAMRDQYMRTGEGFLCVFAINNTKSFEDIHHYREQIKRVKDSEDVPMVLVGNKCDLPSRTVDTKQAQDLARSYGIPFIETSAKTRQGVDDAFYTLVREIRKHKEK

binding to KRAS G12C (modification percentage): greater than 75%
Compound: C=CC(=O)N1C[C@H](C)N(c2nc(C3CN(C(C)C)C3)nc3c(F)c(-c4c(O)cccc4F)c(Cl)cc23)C[C@H]1C (atropisomer, axis not shown) [Compound 1, 1-((2R,5S)-4-((S)-6-chloro-8-fluoro-7-(2-fluoro-6-hydroxyphenyl)-2-(1-isopropylazetidin-3-yl)quinazolin-4-yl)-2,5-dimethylpiperazin-1-yl)prop-2-en-1-one]

— patent publication US11639346B2, “Quinazoline derivatives as modulators of mutant KRAS, HRAS or NRAS” (Araxes Pharma LLC, priority 2017, dated 2023)
